This note sets out measurements from patent publication US20230219956A1 (BETTA PHARMACEUTICALS CO.,LTD, priority 2019, published 2023).

The IC50 is the concentration that inhibits the measured activity by half. Higher therefore signals a need for much substance.

The test system of one assay is MIA-PACA-2 cells. The assay can be described thus: Cell proliferation assay, MIA-PACA-2 cells (Cell-titer Glo). Type of assay: cell-based. Particulars: Homo sapiens, 96 h incubation. How it is done:
(§1) Pave the MIA-PACA-2 cells into a 96-well ultra-low adsorption plate at 600 cells, 160 μL/well. After incubating overnight, compound solutions of gradient concentration was prepared, and added 40 μL of DMSO solution of the test compound of each concentration to the cells of each well. The final concentration of the compound is 10000, 2000, 400, 80, 16, 3.2, 0.64, 0.12, 0.025, 0 nM (the final concentration of DMSO is 0.25%). Incubated for 96 h at 37° C. and 5% CO2. 50 μL of Cell-titer Glo working solution was added to each well, shaked and mixed, and incubated at room temperature for 10 minutes. The multi-functional microplate reader read the luminescence value, and converted the luminescence value reading into inhibition percentage.
(§2) Inhibition percentage=(maximum value−reading)/(maximum value−minimum value)*100.
(§3) The “maximum value” was the DMSO control, the “minimum value” indicates the cell-free control group.
(§4) Graphpad Prism software was used to perform curve fitting and obtain IC50 value.
Refer to Table 3 for the IC50 data of some compounds in the examples inhibiting MIA-PACA-2 cells.

A further assay has as its system H358 cells. The assay can be described thus: Cell proliferation assay, H358 cells (Cell-titer Glo). Particulars: Homo sapiens, NCI-H358, 96 h incubation. Type of assay: cell-based. How it is done: as §1, with “the H358” for “the MIA-PACA-2”, “cells on” for “cells into”, “plate with 2000 cells and 190” for “plate at 600 cells, 160”, “added 10” for “added 40”, “10000, 3333.3, 1111.1, 370.4, 123.5, 41.2, 13.7, 4.6, 1.5,” for “10000, 2000, 400, 80, 16, 3.2, 0.64, 0.12, 0.025,”
as §2, §3, §4
Refer to table 3 for the IC50 data of some compounds in the Examples for inhibiting H358 cells.

Consider `C=CC(=O)N1CC2(CCN(c3nc(C4CCN(CC)CC4)nc4c(OCC(F)(F)F)c(-c5c(C)ccc6[nH]ncc56)c(C=C)cc34)CC2)C1` [Example 9, 1-(7-(2-(1-ethylpiperidin-4-yl)-7-(5-methyl-1H-indazol-4-yl)-8-(2,2,2-trifluoroethoxy)-6-vinylquinazolin-4-yl)-2,7-diazaspiro[3.5]nonan-2-yl)prop-2-en-1-one], for which the IC50 in the assay with MIA-PACA-2 cells came out at 2.1 nM; in the assay on H358 cells it was 3.7 nM.

Take `C=CC(=O)N1CC2(CCN(c3nc(C4CCN(C)CC4)nc4c(OCC)c(-c5c(C)ccc6[nH]ncc56)c(Cl)cc34)CC2)C1` [Example 10, 1-(7-(6-chloro-8-ethoxy-7-(5-methyl-1H-indazol-4-yl)-2-(1-methylpiperidine-4-yl)-quinazolin-4-yl)-2,7-diazaspiro[3.5]nonan-2-yl)prop-2-en-1-one]: the IC50 in the assay with MIA-PACA-2 cells amounted to 25 nM. In other words, the double-digit nanomolar range.

Regarding `C=CC(=O)N1CC2(CCN(c3nc(C4CCN(C)CC4)nc4c(OCC)c(-c5c(C)ccc6[nH]ncc56)c(C=C)cc34)CC2)C1` [Example 11, 1-(7-(8-ethoxy-7-(5-methyl-1H-indazol-4-yl)-2-(1-methylpiperidin-4-yl)-6-vinylquinazolin-4-yl)-2,7-diazaspiro[3.5]nonan-2-yl)prop-2-en-1-one], the 50% inhibitory concentration (IC50) is 4.8 nM with MIA-PACA-2 cells and 4.7 nM in the assay with H358 cells.

Consider `C=CC(=O)N1CC2(CCN(c3nc(C4CCN(C)CC4)nc4c(OC)c(-c5c(C)ccc6[nH]ncc56)c(Cl)cc34)CC2)C1` [Example 12, 1-(7-(6-chloro-8-methoxy-7-(5-methyl-1H-indazol-4-yl)-2-(1-methylpiperidine-4-yl)-quinazolin-4-yl)-2,7-diazaspiro[3.5]nonan-2-yl)prop-2-en-1-one], for which the results for the IC50 in the assay with MIA-PACA-2 cells and in the assay with H358 cells were 107 nM and 76.2 nM, respectively.

As to `C=CC(=O)N1CC2(CCN(c3nc(C4CCN(C)CC4)nc4c(OC)c(-c5c(C)ccc6[nH]ncc56)c(C=C)cc34)CC2)C1` [Example 13, 1-(7-(8-methoxy-7-(5-methyl-1H-indazol-4-yl)-2-(1-methylpiperidin-4-yl)-6-vinylquinazolin-4-yl)-2,7-diazaspiro[3.5]nonan-2-yl)prop-2-en-1-one], the results for the concentration for half-maximal inhibition (IC50) in the assay on MIA-PACA-2 cells and in the assay on H358 cells were 22 nM and 26.3 nM, respectively.

Molecule `C=CC(=O)N1CC2(CCN(c3nc(C4CCN(C)CC4)nc4c(C)c(-c5c(C)ccc6[nH]ncc56)c(C=C)cc34)CC2)C1` [Example 15, 1-(7-(8-methyl-7-(5-methyl-1H-indazol-4-yl)-2-(1-methylpiperidin-4-yl)-6-vinylquinazolin-4-yl)-2,7-diazaspiro[3.5]nonan-2-yl)prop-2-en-1-one] displayed an IC50 in the assay on MIA-PACA-2 cells of 50.5 nM.

Turning to `C=CC(=O)N1CC2(CCN(c3nc(C4CCN(C)CC4)nc4c(OCC(F)(F)F)c(-c5c(C)ccc6[nH]ncc56)c(C5CC5)cc34)CC2)C1` [Example 16], the concentration for half-maximal inhibition (IC50) with MIA-PACA-2 cells is 4.8 nM; in the assay with H358 cells, 3.2 nM.

For the molecule `C=CC(=O)N1CC2(CCN(c3nc(C4CCN(C)CC4)nc4c(OCC(F)(F)F)c(-c5ccc6[nH]ncc6c5)c(C5CC5)cc34)CC2)C1` [Example 17], the results for the IC50 with MIA-PACA-2 cells and in the assay with H358 cells were 1540 nM and 8440 nM, respectively.

Turning to `C=CC(=O)N1CC2(CCN(c3nc(C4CCN(C)CC4)nc4c(OCC(F)(F)F)c(-c5ccnc6[nH]ncc56)c(C5CC5)cc34)CC2)C1` [Example 18], the 50% inhibitory concentration (IC50) is 177 nM with MIA-PACA-2 cells and 715 nM with H358 cells.

As to `C=CC(=O)N1CC2(CCN(c3nc(C4CCN(C)CC4)nc4c(OCC(F)(F)F)c(-c5ccc6cn[nH]c6c5)c(C5CC5)cc34)CC2)C1` [Example 19], in the assay with MIA-PACA-2 cells, the IC50 came out at 2290 nM. In other words, the single-digit micromolar range.

As for `C=CC(=O)N1CC2(CCN(c3nc(C4CCN(C)CC4)nc4c(OCC(F)(F)F)c(-c5cc(F)cc(F)c5)c(C5CC5)cc34)CC2)C1` [Example 20], the figures for the IC50 with MIA-PACA-2 cells and in the assay on H358 cells were 1320 nM and 4200 nM, respectively.

`C=CC(=O)N1CC2(CCN(c3nc(C4CCN(C)CC4)nc4c(OCC(F)(F)F)c(-c5cc(F)cc(OC)c5)c(C5CC5)cc34)CC2)C1` [Example 21] gave an IC50 in the assay with H358 cells of 2720 nM. That is a single-digit micromolar value.

With `C=CC(=O)N1CC2(CCN(c3nc(C4CCN(C)CC4)nc4c(OCCOC)c(-c5c(C)ccc6[nH]ncc56)c(C5CC5)cc34)CC2)C1` [Example 22, 1-(7-(6-cyclopropyl-8-(2-methoxyethoxy)-7-(5-methyl-1H-indazol-4-yl)-2-(1-methylpiperidin-4-yl)quinazolin-4-yl)-2,7-diazaspiro[3.5]nonan-2-yl)prop-2-en-1-one], the values for the IC50 with MIA-PACA-2 cells and with H358 cells were 21 nM and 49.6 nM, respectively.

For the molecule `C=CC(=O)N1CC2(CCN(c3nc(C4CCN(C)CC4)nc4c(OCCOC)c(C5CC5)c(C5CC5)cc34)CC2)C1` [Example 23], the IC50 in the assay with MIA-PACA-2 cells stood at 647 nM; in the assay with H358 cells it was 1700 nM.

As to `C=CC(=O)N1CC2(CCN(c3nc(C4CCN(C)CC4)nc4c(OCC(F)F)c(-c5c(C)ccc6[nH]ncc56)c(C5CC5)cc34)CC2)C1` [Example 24, 1-(7-(6-cyclopropyl-8-(2,2-difluoroethoxy)-7-(5-methyl-1H-indazol-4-yl)-2-(1-methylpiperidin-4-yl)quinazolin-4-yl)-2,7-diazaspiro[3.5]nonan-2-yl)prop-2-en-1-one], the half-maximal inhibitory concentration (IC50) in the assay on MIA-PACA-2 cells stood at 14.5 nM; in the assay on H358 cells it was 17.7 nM.

Regarding `C=CC(=O)N1CC2(CCN(c3nc(C4CCN(C)CC4)nc4c(OCC)c(-c5c(C)ccc6[nH]ncc56)c(CC)cc34)CC2)C1` [Example 25], the values for the IC50 with MIA-PACA-2 cells and with H358 cells were 32.6 nM and 13 nM, respectively.

Take `C=CC(=O)N1CC2(CCN(c3nc(C4CCN(C)CC4)nc4c(OC5CCC5)c(-c5c(C)ccc6[nH]ncc56)c(CC)cc34)CC2)C1` [Example 26]: the 50% inhibitory concentration (IC50) with MIA-PACA-2 cells is 68.2 nM; with H358 cells it was 24.9 nM.

Consider `C=CC(=O)N1CC2(CCN(c3nc(C4CCN(C)CC4)nc4c(OC(C)C)c(-c5c(C)ccc6[nH]ncc56)c(CC)cc34)CC2)C1` [Example 27], for which the concentration for half-maximal inhibition (IC50) turned out to be 388 nM in the assay with MIA-PACA-2 cells and 392 nM in the assay on H358 cells.

In the case of `C=CC(=O)N1CC2(CCN(c3nc(C4CCN(C)CC4)nc4c(OCC(F)F)c(-c5c(C)ccc6[nH]ncc56)c(CC)cc34)CC2)C1` [Example 28], the figures for the IC50 in the assay on MIA-PACA-2 cells and in the assay with H358 cells were 61.4 nM and 44.7 nM, respectively.

In the case of `C=CC(=O)N1CC2(CCN(c3nc(C4CCN(C)CC4)nc4c(OCCF)c(-c5c(C)ccc6[nH]ncc56)c(CC)cc34)CC2)C1` [Example 29], the IC50 is 455 nM in the assay with MIA-PACA-2 cells and 1080 nM in the assay with H358 cells.

For `C=CC(=O)N1CC2(CCN(c3nc(C4CCN(C)CC4)nc4c(OCCOC)c(-c5c(C)ccc6[nH]ncc56)c(CC)cc34)CC2)C1` [Example 30], the IC50 was 171 nM in the assay on MIA-PACA-2 cells and 60.5 nM in the assay with H358 cells.

Take `C=CC(=O)N1CC2(CCN(c3nc(C4CCN(C)CC4)nc4c(OCC5CC5)c(-c5c(C)ccc6[nH]ncc56)c(CC)cc34)CC2)C1` [Example 31]: the half-maximal inhibitory concentration (IC50) was found to be 91.9 nM in the assay on MIA-PACA-2 cells and 20.4 nM in the assay on H358 cells.

Consider `C=CC(=O)N1CC2(CCN(c3nc(C4CCN(C)CC4)nc4c(OCC(F)(F)F)c(-c5c(C)ccc6[nH]ncc56)c(Cl)cc34)CC2)C1` [Example 32, 1-(7-(6-chloro-7-(5-methyl-1H-indazol-4-yl)-2-(1-methylpiperidin-4-yl)-8-(2,2,2-trifluoroethoxy)quinazoline-4-yl)-2,7-diazaspiro[3.5]nonan-2-yl)prop-2-en-1-one], for which the concentration for half-maximal inhibition (IC50) in the assay on MIA-PACA-2 cells turned out to be 16.7 nM; in the assay with H358 cells, 17.9 nM.

Consider `C=CC(=O)N1CC2(CCN(c3nc(C4CCN(C)CC4)nc4c(OC5CCC5)c(-c5c(C)ccc6[nH]ncc56)c(Cl)cc34)CC2)C1` [Example 33], for which the half-inhibitory concentration (IC50) turned out to be 42.9 nM with MIA-PACA-2 cells and 69.7 nM with H358 cells.

For `C=CC(=O)N1CC2(CCN(c3nc(C4CCN(C)CC4)nc4c(OCC(F)F)c(-c5c(C)ccc6[nH]ncc56)c(Cl)cc34)CC2)C1` [Example 34], the IC50 in the assay with MIA-PACA-2 cells is 36.9 nM; with H358 cells, 39 nM.

Consider `C=CC(=O)N1CC2(CCN(c3nc(C4CCN(CCOC)CC4)nc4c(OCC(F)(F)F)c(-c5c(C)ccc6[nH]ncc56)c(CC)cc34)CC2)C1` [Example 35, 1-(7-(6-ethyl-2-(1-(2-methoxyethyl)piperidin-4-yl)-7-(5-methyl-1H-indazol-4-yl)-8-(2,2,2-trifluoroethoxy)quinazolin-4-yl)-2,7-diazaspiro[3.5]nonan-2-yl)prop-2-en-1-one], for which the figures for the 50% inhibitory concentration (IC50) with MIA-PACA-2 cells and with H358 cells were 10.9 nM and 9.6 nM, respectively.

As to `C=CC(=O)N1CC2(CCN(c3nc(C4CCN(CC(C)(C)O)CC4)nc4c(OCC(F)(F)F)c(-c5c(C)ccc6[nH]ncc56)c(CC)cc34)CC2)C1` [Example 36, 1-(7-(6-ethyl-2-(1-(2-hydroxy-2-methylpropyl)piperidin-4-yl)-7-(5-methyl-1H-indazol-4-yl)-8-(2,2,2-trifluoroethoxy)quinazolin-4-yl)-2,7-diazaspiro[3.5]nonan-2-yl) prop-2-en-1-one], the IC50 amounted to 10.1 nM in the assay on MIA-PACA-2 cells and 10.6 nM in the assay with H358 cells.

In the assay with MIA-PACA-2 cells, `C=CC(=O)N1CC2(CCN(c3nc(C4CCN(C)CC4)nc4c(Oc5c(C)ccc6[nH]ncc56)cccc34)CC2)C1` [Example 54] had a concentration for half-maximal inhibition (IC50) of 9600 nM.
